{"source": "patent US11608532B2", "about": "“Precision medicine for treating and preventing suicidality” (Indiana University Research and Technology Corporation, priority 2017, dated 2023)", "origin": "cited, not measured here", "key": {"[1]": {"test_system": "top male bipolar biomarkers for suicidality"}, "[2]": {"test_system": "individual top biomarkers for suicidality", "conditions": "for HTR2A modulated by drug in opposite direction to suicide: DE/2"}, "[3]": {"conditions": "A. Top Universal Biomarkers, direction of change in suicidality (I)"}, "[4]": {"conditions": "C. Top Biomarkers in Females, direction of change in suicidality I"}, "[5]": {"conditions": "D. Top Biomarkers in Bipolar Disorder, direction of change in suicidality (I)"}, "[6]": {"conditions": "F. Top Biomarkers in Males with Bipolar Disorder, direction of change in suicidality (I)"}, "[7]": {"conditions": "biomarker HTR2A (5-hydroxytryptamine (serotonin) receptor 2A, G protein-coupled)"}, "[8]": {"conditions": "HTR2A, 244130_at, (I) in suicidality, male bipolars"}}, "note": "Read-outs that look alike come from different tables or passages of the source.", "data": [{"compound": "omega-3 fatty acids [reference compound]", "values": [{"measurement": "Matching to Treatments (Pharmacogenomics) Drugs that Modulate the Biomarker in opposite Direction to Suicide", "setting": "BioM50 panel biomarkers", "result": "Omega-3"}, {"measurement": "Drugs that Modulate the Biomarker in Opposite Direction to Suicide", "setting": "[1]", "result": "Omega-3"}, {"measurement": "Drugs that Modulate the Biomarker in Opposite Direction to Suicide (direction of change by drug)", "setting": "[1]", "result": "(I)"}]}, {"compound": "CCCC(CCC)C(=O)O", "note": "[Valproate]", "values": [{"measurement": "SLC4A4 modulated by drug in opposite direction to suicide", "setting": "[2]; A. Top Universal Biomarkers, direction of change in suicidality (I), AP/1", "result": "Valproate"}, {"measurement": "HTR2A modulated by drug in opposite direction to suicide", "setting": "[2]; [3]", "result": "Valproate"}, {"measurement": "SLC4A4 modulated by drug in opposite direction to suicide", "setting": "[2]; B. Top Biomarkers in Males, direction of change in suicidality I, AP/2", "result": "Valproate"}, {"measurement": "TPR modulated by drug in opposite direction to suicide", "setting": "[2]; C. Top Biomarkers in Females, direction of change in suicidality D, AP/4", "result": "Valproate"}, {"measurement": "HTR2A modulated by drug in opposite direction to suicide", "setting": "[2]; [4]", "result": "Valproate"}, {"measurement": "HTR2A modulated by drug in opposite direction to suicide", "setting": "[2]; [5]", "result": "Valproate"}, {"measurement": "TSPYL1 modulated by drug in opposite direction to suicide", "setting": "[2]; E. Top Biomarkers in Depression, direction of change in suicidality (D), AP/1", "result": "Valproate"}, {"measurement": "GLIPR1 modulated by drug in opposite direction to suicide", "setting": "[2]; E. Top Biomarkers in Depression, direction of change in suicidality (D), DE/1", "result": "Valproate"}, {"measurement": "HTR2A modulated by drug in opposite direction to suicide", "setting": "[2]; [6]", "result": "Valproate"}, {"measurement": "TSPYL1 modulated by drug in opposite direction to suicide", "setting": "[2]; G. Top Biomarkers in Males with Depression, direction of change in suicidality D, AP/1", "result": "Valproate"}, {"measurement": "Step 6 Drugs that Modulate the Biomarker in Opposite Direction to Suicide", "setting": "[2]; biomarker CTTN (cortactin)", "result": "Valproate"}, {"measurement": "Step 6 Drugs that Modulate the Biomarker in Opposite Direction to Suicide", "setting": "[2]; [7]", "result": "Valproate"}, {"measurement": "Step 6 Drugs that Modulate the Biomarker in Opposite Direction to Suicide", "setting": "[2]; biomarker PKP4 (plakophilin 4)", "result": "Valproate"}, {"measurement": "Step 6 Drugs that Modulate the Biomarker in Opposite Direction to Suicide", "setting": "[2]; biomarker PRKAR2B", "result": "Valproate"}, {"measurement": "Drugs that modulate the biomarker RBM3", "setting": "[2]; biomarker RBM3 (RNA binding motif (RNP1, RRM) protein 3), Table 20 CFE drug-evidence", "result": "Valproate"}, {"measurement": "Step 6 Drugs that Modulate the Biomarker in Opposite Direction to Suicide", "setting": "[2]; biomarker SLC4A4", "result": "Valproate"}, {"measurement": "known drugs or classes of drugs that have an opposite effect to suicidality on the biomarker's direction of change (pharmacogenomics)", "setting": "BioM50 panel biomarkers; biomarker BCL2 (B-cell CLL/lymphoma 2)", "result": "Valproate"}, {"measurement": "Matching to Treatments (Pharmacogenomics) Drugs that Modulate the Biomarker in opposite Direction to Suicide", "setting": "BioM50 panel biomarkers; biomarker NR3C1, probeset 201866_s_at, (D) decreased in high suicidal ideation", "result": "Valproate"}, {"measurement": "Matching to Treatments (Pharmacogenomics) Drugs that Modulate the Biomarker in opposite Direction to Suicide", "setting": "BioM50 panel biomarkers; biomarker PRKAR2B, probeset 203680_at, (D) decreased in high suicidal ideation", "result": "Valproate"}, {"measurement": "Drugs that Modulate the Biomarker in Opposite Direction to Suicide", "setting": "[1]; [8]", "result": "Valproate"}]}, {"compound": "Cc1nc2n(c(=O)c1CCN1CCC(c3noc4cc(F)ccc34)CC1)CCCC2O", "note": "(stereo not drawn) [Paliperidone]", "values": [{"measurement": "HTR2A modulated by drug in opposite direction to suicide", "setting": "[2]; [3]", "result": "Paliperidone,"}, {"measurement": "HTR2A modulated by drug in opposite direction to suicide", "setting": "[2]; [4]", "result": "Paliperidone,"}, {"measurement": "HTR2A modulated by drug in opposite direction to suicide", "setting": "[2]; [5]", "result": "Paliperidone,"}, {"measurement": "HTR2A modulated by drug in opposite direction to suicide", "setting": "[2]; [6]", "result": "Paliperidone,"}, {"measurement": "Step 6 Drugs that Modulate the Biomarker in Opposite Direction to Suicide", "setting": "[2]; [7]", "result": "Paliperidone,"}, {"measurement": "Drugs that Modulate the Biomarker in Opposite Direction to Suicide", "setting": "[1]; [8]", "result": "Paliperidone"}]}, {"compound": "CN1CCN2c3ncccc3Cc3ccccc3C2C1", "note": "(stereo not drawn) [mirtazapine]", "values": [{"measurement": "HTR2A modulated by drug in opposite direction to suicide", "setting": "[2]; [3]", "result": "mirtazapine,"}, {"measurement": "HTR2A modulated by drug in opposite direction to suicide", "setting": "[2]; [4]", "result": "mirtazapine,"}, {"measurement": "HTR2A modulated by drug in opposite direction to suicide", "setting": "[2]; [5]", "result": "mirtazapine,"}, {"measurement": "HTR2A modulated by drug in opposite direction to suicide", "setting": "[2]; [6]", "result": "mirtazapine,"}, {"measurement": "Drugs that Modulate the Biomarker in Opposite Direction to Suicide", "setting": "[1]; [8]", "result": "mirtazapine"}]}, {"compound": "CN1C(=O)CN=C(c2ccccc2)c2cc(Cl)ccc21", "note": "[Diazepam]", "values": [{"measurement": "Step 6 Drugs that Modulate the Biomarker in Opposite Direction to Suicide", "setting": "[2]; biomarker AKAP13 (A kinase (PRKA) anchor protein 13)", "result": "Diazepam"}, {"measurement": "Step 6 Drugs that Modulate the Biomarker in Opposite Direction to Suicide", "setting": "[2]; biomarker PGK1 (phosphoglycerate kinase 1)", "result": "Diazepam"}, {"measurement": "Step 6 Drugs that Modulate the Biomarker in Opposite Direction to Suicide", "setting": "[2]; biomarker PSMB4", "result": "Diazepam"}, {"measurement": "Drugs that modulate the biomarker SPTBN1", "setting": "[2]; biomarker SPTBN1 (spectrin, beta, non-erythrocytic 1), Table 20 CFE drug-evidence", "result": "Diazepam"}, {"measurement": "Drugs that Modulate the Biomarker in Opposite Direction to Suicide", "setting": "[1]; SPTBN1, 215918_s_at, (I) in suicidality, male bipolars", "result": "Diazepam"}]}]}
